Reference: patent publication US20100298300A1, “TRIAZOLOPYRAZINE COMPOUNDS USEFUL FOR THE TREATMENT OF DEGENERATIVE & INFLAMMATORY DISEASES” (priority 2006, published 2010)

How the values were obtained:
[1] = system: MMP1 expression by activated primary synovial fibroblasts; assay: 'MMP assay': MMP1 expression by complex trigger activated synovial fibroblasts (MMP1 ELISA); assay type: cell-based; details: Homo sapiens, Fibroblast; Table 3; RASFs, complex trigger, 48 hrs, MMP1 ELISA
[2] = system: TNFα release by human PBMCs; assay: Cytokine release by LPS stimulated human PBMCs (TNFα ELISA); assay type: cell-based; details: PBMC, 24 h, Table 5, LPS 1 μg/mL
Method: For the assay PBMCs are seeded at 2.5E6 cells/mL in 160 μL in 96-well plates (Nunc). Serial dilution of the test compounds are made first in DMSO (Sigma) and then diluted 50-fold in M199 medium (Gibco) containing 1% heat-inactivated FBS. Compounds are further 1/10 diluted in the assay plates to obtain final DMSO concentration of 0.2%. Cells are preincubated with the compounds for 1 hr at 37° C., 5% CO2. Then, cells are stimulated with LPS (Escherichia coli serotype 026:B6, Cat. No. L2654, Sigma) that is added in a volume of 20 μL to a final concentration of 1 μg/mL and cells are further cultured for 24 hr. The plates are centrifuged and the supernatant is collected and stored at −80° C. until analysis of appropriate dilutions in ELISAs.
After 4 hr incubation at RT, blocking buffer is removed and plates are washed once with PBST (1×PBS with 0.05% Tween-20 (Sigma)). Then, 40 μL of sample is transferred to the ELISA plates and plates are incubated at 4° C. […] After 2 h of incubation at RT, plates are washed as described above and 35 μL/well of a 1/2000 dilution of streptavidin-HRP conjugate (Cat. No. SNN2004, Biosource) in buffer D is added. After 45 min, plates are washed as described above and incubated for 5 min with 50 μL/well BM Chemiluminescence ELISA Substrate POD (Roche). Readout is performed on the Luminoscan Ascent Luminometer (Labsystems) with an integration time of 100 msec delivering raw data (RLU: relative luminescence units). The following controls are included in the experiments, a maximal signal control, in which the cells are activated by LPS but only the 0.2% DMSO vehicle (and thus no compound) is added. […] A minimal signal control is also included in these experiments. Here, cells are not triggered. […] Where compounds are tested at 8 concentrations (1/3 serial dilution), EC50-values can be calculated by curve fitting of the means of the PIN data achieved for a compound at each test concentration.

MAPKAPK5 = molecular target: T1, MAPKAPK5 (Homo sapiens, UniProt Q8IW41); assay: MAPKAP-K5 assay (FlashPlate kinase assay)
T1 sequence (Q8IW41 1-471 isoform Q8IW41-2): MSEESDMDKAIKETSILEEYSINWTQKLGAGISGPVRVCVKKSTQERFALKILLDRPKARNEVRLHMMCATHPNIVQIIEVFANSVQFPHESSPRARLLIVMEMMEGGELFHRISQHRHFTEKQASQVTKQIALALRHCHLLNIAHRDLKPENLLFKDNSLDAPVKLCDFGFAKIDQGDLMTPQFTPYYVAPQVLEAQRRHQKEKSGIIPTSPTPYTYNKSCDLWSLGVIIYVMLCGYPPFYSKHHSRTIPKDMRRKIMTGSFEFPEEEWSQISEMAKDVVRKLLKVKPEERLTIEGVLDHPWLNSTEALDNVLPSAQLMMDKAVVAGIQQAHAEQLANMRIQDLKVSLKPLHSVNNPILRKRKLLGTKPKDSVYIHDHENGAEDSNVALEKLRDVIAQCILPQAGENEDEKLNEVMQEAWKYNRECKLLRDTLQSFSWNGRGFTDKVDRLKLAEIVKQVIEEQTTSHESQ
Method: MAPKAP-K5 reactions are performed in FlashPlate format using 0.1 or 0.2 μCi 33P-ATP; 0.6 μM ATP; 1 mU MAPKAP-K5; 3 μM MAPKAP-K5 peptide substrate, incubated at room temperature for 30 minutes.
The MAPKAP-K5 kinase reaction is performed in a 384 well polypropylene plate (Matrix Technologies) and then transferred to a streptavidin-coated 384 well flashplate (Perkin-Elmer).
To wells containing 2 μL test compound or standard inhibitor, 13 μL Enzyme mix or diluent are added using a Hydra (Robbins Scientific).
Reactions are started by addition of 10 μL of [2,5×] substrate cocktail using a Multidrop (Thermo-Labsystems), to give final concentrations in the assay of:
Plates are incubated at room temperature for 30 minutes.
Reactions are terminated by the addition of 25 μL EDTA (50 mM) to each well using a Micro-fill (Biotek).
Reactions are transferred to a streptavidin-coated flashplate using a Zymark robotic system. Plates are incubated for 60 minutes at room temperature.
All wells are washed 3 times with 100 μl phosphate buffered saline using a Tecan plate washer.
Radioactivity is determined by scintillation counting of the flashplate (empty wells) on a Packard TopCount.
Enzyme Mix: • Enzyme • 50 mM Tris Hcl (pH 7.5) • 0.1 mM EGTA • 2 mM DTT • 1 mg/mL BSA
Reaction Buffer: • 50 mM Tris Hcl (pH 7.5) • 0.1 mM EGTA • 10 mM Magnesium acetate • 2 mM DTT

IC50 (MAPKAPK5) [µM]	SMILES	EC50 [1] [µM]	EC50 [2] [µM]
> 1	Cc1[nH]ncc1-c1cnc(Nc2ccc(N3CCN(C)CC3)cc2)c2ncnn12 [Compound 16, 5-(5-Methyl-1H-pyrazol-4-yl)-N-(4-(4-methylpiperazin-1-yl)phenyl)-[1,2,4]triazolo[1,5-a]pyrazin-8-amine]	> 1	> 1
> 1	c1nc2c(Nc3ccc(OCCN4CCOCC4)cc3)ncc(-c3cn[nH]c3)n2n1 [Compound 20]	> 1	> 1
> 1	CNCc1cc(Nc2ncc(-c3cn[nH]c3)n3ncnc23)ccc1N1CCOCC1 [Compound 110]	> 1	> 1
> 1	CC(C)N1CCN(c2ccc(Nc3ncc(-c4cn[nH]c4)n4ncnc34)cc2C(F)(F)F)CC1 [Compound 171, [4-(4-Isopropylpiperazin-1-yl)-3-trifluoromethylphenyl]-[5-(1H-pyrazol-4-yl)-[1,2,4]triazolo[1,5-a]pyrazin-8-yl]amine]	> 1	0.501 to 1
0.101 to 0.5	O=C1NCc2cc(-c3cnc(NC4CCCC4)c4ncnn34)ccc21 [Compound 181]	> 1	> 1
> 1	c1nc2c(Nc3ccc(N4CCOCC4)cc3)ncc(-c3ccc4ncsc4c3)n2n1 [Compound 66]	0.501 to 1	> 1
0.001 to 0.1	NC(=O)c1cc(-c2cnc(Nc3ccc(N4CCOCC4)nc3)c3ncnn23)co1 [Compound 94]	> 1	> 1
> 1	O=C1NCCc2cc(-c3cnc(Nc4ccc(N5CCOCC5)cc4)c4ncnn34)ccc21 [Compound 35, 6-(8-(4-Morpholinophenylamino)-[1,2,4]triazolo[1,5-a]pyrazin-5-yl)-3,4-dihydroisoquinolin-1(2H)-one]	0.101 to 0.5	> 1
> 1	FC(F)(F)CN1CCN(c2ccc(Nc3ncc(-c4cn[nH]c4)n4ncnc34)cn2)CC1 [Compound 44, [5-(1H-Pyrazol-4-yl)-[1,2,4]triazolo[1,5-a]pyrazin-8-yl]-{6-[4-(2,2,2-trifluoroethyl)piperazin-1-yl]pyridin-3-yl}amine]	> 1	> 1
0.101 to 0.5	CNCc1cc(Nc2ncc(-c3ccc4c(c3)CNC4=O)n3ncnc23)ccc1N1CCOCC1 [Compound 179]	> 1	> 1

The next lines start with the compound.

SMILES	IC50 (MAPKAPK5) [µM]	EC50 [1] [µM]	EC50 [2] [µM]
CC(C)N1CCN(c2ccc(Nc3ncc(-c4ccc5c(c4)CNC5=O)n4ncnc34)cn2)CC1 [Compound 79, 5-(8-(6-(4-Isopropylpiperazin-1-yl)pyridin-3-ylamino)-[1,2,4]triazolo[1,5-a]pyrazin-5-yl)isoindolin-1-one]	0.001 to 0.1	0.501 to 1	> 1
CN1CCN(c2ccc(Nc3ncc(-c4ccc(C(N)=O)cc4)n4ncnc34)cc2)CC1 [Compound 3]	> 1	0.101 to 0.5	> 1
CN1CCN(c2ccc(Nc3ncc(-c4ccc(C(N)=O)s4)n4ncnc34)cc2)CC1 [Compound 9, 5-{8-[4-(4-Methyl-piperazin-1-yl)-phenylamino]-[1,2,4]triazolo[1,5-a]pyrazin-5-yl}-thiophene-2-carboxylic acid amide]	0.501 to 1	0.501 to 1	0.101 to 0.5
CC(C)(C)N1CCN(c2ccc(Nc3ncc(-c4ccc5c(c4)CNC5=O)n4ncnc34)cc2)CC1 [Compound 102, 5-{8-[4-(4-tert-Butyl-piperazin-1-yl)-phenylamino]-[1,2,4]triazolo[1,5-a]pyrazin-5-yl}-2,3-dihydro-isoindol-1-one]	0.001 to 0.1	> 1	> 1
CC(C)N1CCN(c2ccc(Nc3ncc(-c4csc(C(N)=O)n4)n4ncnc34)cc2)CC1 [Compound 62, 4-{8-[4-(4-Isopropylpiperazin-1-yl)phenylamino]-[1,2,4]triazolo[1,5-a]pyrazin-5-yl}thiazole-2-carboxylic acid amide]	0.501 to 1	> 1	0.501 to 1
NC(=O)c1ccc(-c2cnc(Nc3ccc(N4CCOCC4)cc3)c3ncnn23)cc1F [Compound 11]	> 1	0.101 to 0.5	> 1
c1ccc2c(-c3cnc(Nc4ccc(N5CCOCC5)cc4)c4ncnn34)csc2c1 [Compound 48, (5-Benzo[b]thiophen-3-yl-[1,2,4]triazolo[1,5-a]pyrazin-8-yl)-(4-morpholin-4-ylphenyl)amine]	> 1	0.101 to 0.5	> 1
O=C1NCc2cc(-c3cnc(Nc4ccc(F)cc4F)c4ncnn34)ccc21 [Compound 174]	> 1	> 1	> 1
C[C@@H]1CN(c2ccc(Nc3ncc(-c4csc(C(N)=O)c4)n4ncnc34)cc2)C[C@H](C)O1 [Compound 24]	0.501 to 1	0.101 to 0.5	> 1
CC(C)N1CCC(c2ccc(Nc3ncc(-c4cn[nH]c4)n4ncnc34)cn2)CC1 [Compound 172]	> 1	> 1	> 1
Clc1cc(N2CCOCC2)ccc1Nc1ncc(-c2cn[nH]c2)n2ncnc12 [Compound 68]	> 1	> 1	> 1
CN1CCN(c2ccc(Nc3ncc(-c4cn[nH]c4)n4ncnc34)cc2)CC1 [Compound 2]	> 1	> 1	> 1
c1nc2c(Nc3ccc(N4CCOCC4)cc3)ncc(-c3ccc4[nH]ncc4c3)n2n1 [Compound 104]	> 1	> 1	> 1
O=C1CCc2cc(-c3cnc(Nc4ccc(N5CCOCC5)cc4)c4ncnn34)ccc2N1 [Compound 39]	> 1	> 1	> 1
CC(C)N1CCN(c2ccc(Nc3ncc(-c4cc(F)c(C(N)=O)c(F)c4)n4ncnc34)cc2)CC1 [Compound 26]	> 1	> 1	0.501 to 1
NC(=O)c1cc(-c2cnc(Nc3ccc(N4CCOCC4)cc3)c3ncnn23)cs1 [Compound 15, 4-[8-(4-Morpholin-4-yl-phenylamino)-[1,2,4]triazolo[1,5-a]pyrazin-5-yl]-thiophene-2-carboxylic acid amide]	0.101 to 0.5	0.101 to 0.5	0.501 to 1
CNC(=O)c1nc(-c2cnc(Nc3ccc(N4CCN(C(C)C)CC4)cc3)c3ncnn23)cs1 [Compound 74]	> 1	> 1	> 1
NC(=O)c1ccc(-c2cnc(Nc3ccc(N4CCOCC4)cc3)c3ncnn23)cc1 [Compound 5]	> 1	0.101 to 0.5	> 1
CC(C)N1CCC(c2ccc(Nc3ncc(-c4ccc5c(c4)CNC5=O)n4ncnc34)cc2)CC1 [Compound 92, 5-{8-[4-(1-Isopropylpiperidin-4-yl)phenylamino]-[1,2,4]triazolo[1,5-a]pyrazin-5-yl}-2,3-dihydroisoindol-1-one]	0.001 to 0.1	0.101 to 0.5	> 1
NC(=O)c1cc(-c2cnc(Nc3ccc(N4CCOCC4)cc3)c3ncnn23)co1 [Compound 34, 4-(8-(4-Morpholinophenylamino)-[1,2,4]triazolo[1,5-a]pyrazin-5-yl)furan-2-carboxamide]	0.101 to 0.5	0.001 to 0.1	> 1
CC(C)N1CCN(c2ccc(Nc3ncc(-c4ccnc(CO)c4)n4ncnc34)cn2)CC1 [Compound 90, (4-{8-[6-(4-Isopropylpiperazin-1-yl)pyridin-3-ylamino]-[1,2,4]triazolo[1,5-a]pyrazin-5-yl}pyridin-2-yl)methanol]	> 1	> 1	> 1
CC(C)N1CCN(c2ccc(Nc3ncc(-c4ccnc(CF)c4)n4ncnc34)cc2)CC1 [Compound 91]	> 1	> 1	> 1
